{"source": "paper PMC8203827", "about": "“The Stand-Alone PilZ-Domain Protein MotL Specifically Regulates the Activity of the Secondary Lateral Flagellar System in Shewanella putrefaciens” (Frontiers in Microbiology, 2021)", "target": "T1, MotL (sfGFP-MotL) (Shewanella putrefaciens, UniProt A0ABX8XB40)", "T1 construct": "gene K3G22_17145", "T1 sequence (A0ABX8XB40 1-144)": "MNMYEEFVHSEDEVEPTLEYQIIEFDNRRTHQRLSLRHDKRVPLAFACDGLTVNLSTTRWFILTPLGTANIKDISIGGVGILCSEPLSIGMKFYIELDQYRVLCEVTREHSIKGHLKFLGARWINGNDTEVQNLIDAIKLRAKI", "experiment": "radioligand spot binding on nitrocellulose, phosphorimaging", "settings": "labelled compound ([…]); […] protein, […] Tris-HCl, […] NaCl, […] MgCl2, […] min, RT; protein purified from strain co-producing phosphodiesterase PdeH"}
{"smiles": "Nc1nc2c(ncn2[C@@H]2O[C@@H]3COP(=O)(O)O[C@H]4[C@@H](O)[C@H](n5cnc6c(=O)[nH]c(N)nc65)O[C@@H]4COP(=O)(O)O[C@H]3[C@H]2O)c(=O)[nH]1", "note": "[c-di-GMP]", "values": [{"measurement": "radioligand spot binding on nitrocellulose, phosphorimaging", "value": "Produced under these conditions, robust c-di-GMP binding to MotL could be observed"}]}
